The EC50 is the concentration at which the effect is half-maximal. A low value points to greater potency.

The source of these data is PMC10589713 (Proceedings of the National Academy of Sciences of the …, 2023).

Several values for one entry are separate records, joined by “and”; a condition that tells them apart may be missing. Equal values may be shown once.

For this test, the system named is SARS-CoV-2. The experiment in a line: microbe, parasite or virus in culture. In kind it is cell-based.

Take `O=c1ccn([C@@H]2O[C@H](CO)[C@@H](O)[C@H]2O)c(=S)[nH]1` [s2U, 2-thiouridine]: the EC50 was 2000 nM and 2200 nM and 1800 nM and 2900 nM and 1900 nM and 2500 nM.
